The assay has as its target T1, human PD-1 / PD-L1-Ig binding on Jurkat cell line over-expressing human PD-1 (Jurkat-PD-1) (Homo sapiens, UniProt Q15116).
T1 construct: expressed in transfected cells; host or cells: Jurkat
Briefly: Jurkat-PD-1 Cell Binding High-Content Screening Assay (CBA). The class given is cell-based. Particulars: Jurkat-PD-1 cells, PE-labeled PD-L1-Ig 20 nM final; read-out: Jurkat HPD1_PDL1 IC50. The essentials:
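Cell-bound PE-labeled PD-L1-Ig (20 nM final, 1 h) measured by high-content imaging after fixation and Hoechst 33342 counterstain. Compound was applied first for 2 h at 37° C. to Jurkat cells over-expressing human PD-1 in DMEM with 10% FCS.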

Structures are written as SMILES. *1 amine or outer side, *2 acyl side, *3 side chain or, on linkers, in order; H or OH if unused. Where a SMILES comes first, the peptide text is derived from it. Bridges are numbered along the chain shown (N, C = ends). [ ]: non-standard residue; d: D form. The star is where a group is joined. Ala(morpholin-4-yl) = N[C@@H](CN1CCOCC1)C(=O)O; Phe(4-CONH2) = NC(=O)c1ccc(C[C@H](N)C(=O)O)cc1; Phe(4-COOH) = N[C@@H](Cc1ccc(C(=O)O)cc1)C(=O)O; Bip = N[C@@H](Cc1ccc(-c2ccccc2)cc1)C(=O)O; Phe(3-F) = N[C@@H](Cc1cccc(F)c1)C(=O)O; Phe(3-Me) = Cc1cccc(C[C@H](N)C(=O)O)c1; γGlu = O=C(O)[C@H](CCC(=O)[*:2])N[*:1]; Val(3-OH) = CC(C)(O)[C@H](N)C(=O)O; 4Pal = N[C@@H](Cc1ccncc1)C(=O)O; Cha = N[C@@H](CC1CCCCC1)C(=O)O; Cit = NC(=O)NCCC[C@H](N)C(=O)O; Chg = N[C@H](C(=O)O)C1CCCCC1; dDab = NCC[C@@H](N)C(=O)O; Carboxymethyl = O=C(O)C*; Nle = CCCC[C@H](N)C(=O)O; Orn = NCCC[C@H](N)C(=O)O; Pra = C#CC[C@H](N)C(=O)O; Dab = NCC[C@H](N)C(=O)O; Nva = CCC[C@H](N)C(=O)O; Dap = NC[C@H](N)C(=O)O; X2 = Cc1cnc(CN*)cn1

Drawing on US20250163104A1, “MACROCYCLIC IMMUNOMODULATORS” (priority 2021, published 2025), this text covers IC50 for 13 compounds.

As a reminder, the IC50 is the concentration at which inhibition is half-maximal.

T1 sequence (Q15116 25-288): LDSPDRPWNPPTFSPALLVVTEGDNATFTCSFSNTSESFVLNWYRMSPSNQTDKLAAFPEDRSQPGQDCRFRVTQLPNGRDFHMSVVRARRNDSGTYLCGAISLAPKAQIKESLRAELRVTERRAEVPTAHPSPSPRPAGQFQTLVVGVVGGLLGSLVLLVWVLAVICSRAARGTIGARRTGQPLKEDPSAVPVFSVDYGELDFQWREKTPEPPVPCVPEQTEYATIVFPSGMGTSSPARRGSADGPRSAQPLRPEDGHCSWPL

With `C#CC[C@H](NC(=O)[C@H](CCN)NC(=O)[C@@H]1CSCC(=O)N[C@@H](CN)C(=O)N[C@@H](Cc2ccc(C(=O)O)cc2)C(=O)N[C@@H](CC(=O)O)C(=O)N[C@@H](Cc2cccc(C)c2)C(=O)N[C@@H](Cc2ccc(C(=O)O)cc2)C(=O)N[C@@H](Cc2ccc(-c3ccccc3)cc2)C(=O)N[C@@H](Cc2ccc(C(=O)O)cc2)C(=O)N[C@@H](CCCN)C(=O)N[C@H](CC(C)C)C(=O)N[C@@H](CCN)C(=O)N[C@@H](CC2CCCCC2)C(=O)N[C@@H](C(C)(C)O)C(=O)N[C@@H](CCCN)C(=O)N1)C(N)=O` [Compound 1856] ({CH2CO}-[Dap][Phe(4-COOH)]D[Phe(3-Me)][Phe(4-COOH)][Bip][Phe(4-COOH)][Orn][dL][Dab][Cha][Val(3-OH)][Orn]C[Dab][Pra]-NH2; thioether N-14), the half-maximal inhibitory concentration (IC50) came out at 6 nM.

As for `Cc1cccc(C[C@@H]2NC(=O)[C@H](CC(=O)O)NC(=O)[C@H](Cc3ccc(OCC(=O)O)cc3)NC(=O)[C@H](Cc3ccncc3)NC(=O)CSC[C@@H](C(=O)N[C@H](CC(N)=O)C(N)=O)NC(=O)[C@H](CO)NC(=O)[C@H](C(C)(C)O)NC(=O)[C@H](CC3CCCCC3)NC(=O)[C@H](CCN)NC(=O)[C@@H](CC(C)C)NC(=O)[C@H](CCCN)NC(=O)[C@H](Cc3ccc(O)cc3)NC(=O)[C@H](Cc3ccc(-c4ccccc4)cc3)NC(=O)[C@H](Cc3ccc(C(N)=O)cc3)NC2=O)c1` [Compound 2657] ({CH2CO}-[4Pal]Y(Carboxymethyl)D[Phe(3-Me)][Phe(4-CONH2)][Bip]Y[Orn][dL][Dab][Cha][Val(3-OH)]SC[dN]-NH2; thioether N-14), the IC50 turned out to be 8.9 nM.

`CC(C)C[C@H]1NC(=O)[C@H](CCCN)NC(=O)[C@H](C(C)C)NC(=O)[C@H](Cc2ccc(-c3ccccc3)cc2)NC(=O)[C@H](C(C)C)NC(=O)[C@H](Cc2c[nH]c3ccccc23)NC(=O)[C@H](CC(=O)O)NC(=O)[C@H](Cc2ccc(OCC(=O)O)cc2)NC(=O)[C@H](CN)NC(=O)CSC[C@@H](C(=O)N[C@@H](C)C(N)=O)NC(=O)[C@H]([C@@H](C)O)NC(=O)[C@H](C(C)C)NC(=O)[C@H](Cc2cccc(F)c2)NC(=O)[C@H](CCN)NC1=O` [Compound 1672] ({CH2CO}-[Dap]Y(Carboxymethyl)DWV[Bip]V[Orn][dL][Dab][Phe(3-F)]VTCA-NH2; thioether N-14): the IC50 came to 11.2 nM.

Regarding `CC(C)C[C@H]1NC(=O)[C@H](CCCN)NC(=O)[C@H](CCCNC(N)=O)NC(=O)[C@H](Cc2ccc(-c3ccccc3)cc2)NC(=O)[C@H](C(C)C)NC(=O)[C@H](Cc2c[nH]c3ccccc23)NC(=O)[C@H](CC(=O)O)NC(=O)[C@H](Cc2ccc(OCC(=O)O)cc2)NC(=O)[C@H](CN)NC(=O)CSC[C@@H](C(=O)N[C@@H](C)C(N)=O)NC(=O)[C@H]([C@@H](C)O)NC(=O)[C@H](C(C)C)NC(=O)[C@H](CC2CCCCC2)NC(=O)[C@H](Cc2c[nH]cn2)NC1=O` [Compound 1590] ({CH2CO}-[Dap]Y(Carboxymethyl)DWV[Bip][Cit][Orn][dL]H[Cha]VTCA-NH2; thioether N-14), the IC50 came out at 9 nM.

With `Cc1cccc(C[C@@H]2NC(=O)[C@H](CC(=O)O)NC(=O)[C@H](Cc3ccc(OCC(=O)O)cc3)NC(=O)[C@H](CN)NC(=O)CSC[C@@H](C(=O)N[C@@H](C)C(=O)NCc3cnc(C)cn3)NC(=O)[C@H](CN)NC(=O)[C@H](C(C)C)NC(=O)[C@H](CC3CCCCC3)NC(=O)[C@H](CCN)NC(=O)[C@@H](CC(C)C)NC(=O)[C@H](CCCN)NC(=O)[C@H](CCCNC(N)=O)NC(=O)[C@H](Cc3ccc(-c4ccccc4)cc3)NC(=O)[C@H](C(C)C)NC2=O)c1` [Compound 2019] ({CH2CO}-[Dap]Y(Carboxymethyl)D[Phe(3-Me)]V[Bip][Cit][Orn][dL][Dab][Cha]V[Dap]CA-X2; thioether N-14), the IC50 was determined as 12.8 nM.

On to `C#CC[C@H](NC(=O)[C@@H]1CSCC(=O)N[C@@H](CCC)C(=O)N[C@@H](Cc2ccc(OCC(=O)O)cc2)C(=O)N[C@@H](CC(=O)O)C(=O)N[C@@H](Cc2cccc(C)c2)C(=O)N[C@@H](Cc2ccc(OCC(=O)O)cc2)C(=O)N[C@@H](Cc2ccc(-c3ccccc3)cc2)C(=O)N[C@@H](Cc2ccc(OCC(=O)O)cc2)C(=O)N[C@@H](CCCC)C(=O)N[C@H](CC(C)C)C(=O)N[C@@H](CCN)C(=O)N[C@@H](CC2CCCCC2)C(=O)N[C@@H](C(C)C)C(=O)N[C@@H](CCC(=O)O)C(=O)N1)C(=O)O` [Compound 2703] ({CH2CO}-[Nva]Y(Carboxymethyl)D[Phe(3-Me)]Y(Carboxymethyl)[Bip]Y(Carboxymethyl)[Nle][dL][Dab][Cha]VEC[Pra]-OH; thioether N-14), for which the concentration for half-maximal inhibition (IC50) is 412 nM.

As for `CC(C)C[C@@H]1NC(=O)[C@H](Cc2c[nH]c3ccccc23)NC(=O)[C@H](CC(=O)O)NC(=O)[C@H](Cc2ccc(O)cc2)NC(=O)[C@H](Cc2ccccc2)NC(=O)CSC[C@@H](C(=O)N[C@@H](C)C(N)=O)NC(=O)[C@H](CO)NC(=O)[C@H](C(C)C)NC(=O)[C@H](CC(C)C)NC(=O)[C@H](CC(N)=O)NC(=O)[C@@H](C)NC(=O)[C@@H](CCN)NC(=O)[C@H](C(C)C)NC(=O)[C@H](Cc2ccc(-c3ccccc3)cc2)NC1=O` [Compound 2003] ({CH2CO}-FYDWL[Bip]V[dDab][dA]NLVSCA-NH2; thioether N-14), the IC50 amounted to 35 nM.

Take `C#CC[C@H](NC(=O)[C@H](CCN)NC(=O)[C@@H]1CSCC(=O)N[C@@H](CN2CCOCC2)C(=O)N[C@@H](Cc2ccc(OCC(=O)O)cc2)C(=O)N[C@@H](CC(=O)O)C(=O)N[C@@H](Cc2cccc(C)c2)C(=O)N[C@@H](Cc2ccc(OCC(=O)O)cc2)C(=O)N[C@@H](Cc2ccc(-c3ccccc3)cc2)C(=O)N[C@@H](Cc2ccc(OCC(=O)O)cc2)C(=O)N[C@@H](CCCN)C(=O)N[C@H](CC(C)C)C(=O)N[C@@H](CCN)C(=O)N[C@@H](CC2CCCCC2)C(=O)N[C@@H](C(C)(C)O)C(=O)N[C@@H](CO)C(=O)N1)C(N)=O` [Compound 1852] ({CH2CO}-[Ala(morpholin-4-yl)]Y(Carboxymethyl)D[Phe(3-Me)]Y(Carboxymethyl)[Bip]Y(Carboxymethyl)[Orn][dL][Dab][Cha][Val(3-OH)]SC[Dab][Pra]-NH2; thioether N-14): the IC50 was found to be 18.9 nM.

On to `CC(C)C[C@H]1NC(=O)[C@H](CCCN)NC(=O)[C@H](CCC(=O)O)NC(=O)[C@H](Cc2ccc(-c3ccccc3)cc2)NC(=O)[C@H](C2CCCCC2)NC(=O)[C@H](Cc2c[nH]c3ccccc23)NC(=O)[C@H](CC(=O)O)NC(=O)[C@H](Cc2ccc(OCC(=O)O)cc2)NC(=O)[C@H](CN)NC(=O)CSC[C@@H](C(=O)N[C@@H](C)C(N)=O)NC(=O)[C@H]([C@@H](C)O)NC(=O)[C@H](C(C)C)NC(=O)[C@H](CC2CCCCC2)NC(=O)[C@H](CCN)NC1=O` [Compound 1714] ({CH2CO}-[Dap]Y(Carboxymethyl)DW[Chg][Bip]E[Orn][dL][Dab][Cha]VTCA-NH2; thioether N-14), for which the IC50 is 37.6 nM.

Turning to `CC(C)C[C@@H]1NC(=O)[C@H](Cc2c[nH]c3ccccc23)NC(=O)[C@H](CC(=O)O)NC(=O)[C@H](Cc2ccncc2)NC(=O)[C@H](CN)NC(=O)CSC[C@@H](C(=O)NCC(N)=O)NC(=O)[C@H](CO)NC(=O)[C@H](C(C)C)NC(=O)[C@H](CC(C)C)NC(=O)[C@H](CC(N)=O)NC(=O)[C@@H](CC(C)C)NC(=O)[C@H](CN)NC(=O)[C@H](C(C)C)NC(=O)[C@H](Cc2ccc(-c3ccccc3)cc2)NC1=O` [Compound 1277] ({CH2CO}-[Dap][4Pal]DWL[Bip]V[Dap][dL]NLVSCG-NH2; thioether N-14), the IC50 was 8.6 nM.

On to `CC(C)C[C@H]1NC(=O)[C@H](CCCN)NC(=O)[C@H](CCC(=O)O)NC(=O)[C@H](Cc2ccc(-c3ccccc3)cc2)NC(=O)[C@H](C(C)C)NC(=O)[C@H](Cc2c[nH]c3ccccc23)NC(=O)[C@H](CC(=O)O)NC(=O)[C@H](Cc2ccc(-c3ccc(C(=O)O)cc3)cc2)NC(=O)[C@H](Cc2ccc(OCC(=O)O)cc2)NC(=O)CSC[C@@H](C(=O)N[C@@H](C)C(N)=O)NC(=O)[C@H]([C@@H](C)O)NC(=O)[C@H](C(C)C)NC(=O)[C@H](CC2CCCCC2)NC(=O)[C@H](CCN)NC1=O` [Compound 2168], for which the IC50 came out at 19.6 nM.

Consider `CC(C)C[C@@H]1NC(=O)[C@H](CCN)NC(=O)[C@@H](CC(C)C)NC(=O)[C@H](CCCN)NC(=O)[C@H](CCCNC(N)=O)NC(=O)[C@H](Cc2ccc(-c3ccccc3)cc2)NC(=O)[C@H](C(C)C)NC(=O)[C@H](Cc2c[nH]c3ccccc23)NC(=O)[C@H](CC(=O)O)NC(=O)[C@H](Cc2ccc(OCC(=O)O)cc2)NC(=O)[C@H](Cc2ccc(OCC(=O)O)cc2)NC(=O)CSC[C@@H](C(=O)N[C@@H](C)C(N)=O)NC(=O)[C@H]([C@@H](C)O)NC(=O)[C@H](C(C)C)NC1=O` [Compound 1247] ({CH2CO}-Y(Carboxymethyl)Y(Carboxymethyl)DWV[Bip][Cit][Orn][dL][Dab]LVTCA-NH2; thioether N-14), for which the IC50 was determined as 19.7 nM.

Take `C#CC[C@H](NC(=O)CC[C@H](NC(=O)[C@H](CCN)NC(=O)[C@@H]1CSCC(=O)N[C@@H](CCN)C(=O)N[C@@H](Cc2ccc(OCC(=O)O)cc2)C(=O)N[C@@H](CC(=O)O)C(=O)N[C@@H](Cc2cccc(C)c2)C(=O)N[C@@H](Cc2ccc(C(=O)O)cc2)C(=O)N[C@@H](Cc2ccc(-c3ccccc3)cc2)C(=O)N[C@@H](Cc2ccc(C(=O)O)cc2)C(=O)N[C@@H](CCCN)C(=O)N[C@H](CC(C)C)C(=O)N[C@@H](Cc2cnc[nH]2)C(=O)N[C@@H](CC2CCCCC2)C(=O)N[C@@H](C(C)(C)O)C(=O)N[C@@H](CCC(=O)O)C(=O)N1)C(=O)O)C(N)=O` [Compound 2678] ({CH2CO}-[Dab]Y(Carboxymethyl)D[Phe(3-Me)][Phe(4-COOH)][Bip][Phe(4-COOH)][Orn][dL]H[Cha][Val(3-OH)]EC[Dab][γGlu][Pra]-NH2; thioether N-14): the IC50 was 12.2 nM.
